From patent US4175130A, “Oxazole- and thiazole-alkanoic acid compounds” (Yoshitomi Pharmaceutical Industries, Ltd., priority 1977, dated 1979)

What was measured:
[1] = tested on: Cholesterol and triglyceride in the serum; experiment: Hypolipidemic action: male rats with normolipidemia (serum cholesterol and triglyceride, oral, 5 days); format: in vivo; conditions: Wistar rats, 100 mg/kg/day oral, control = 100%, * p<0.05 (all values starred)
Experimental: (1) Male rats with normolipidemia:
Male Wistar rats (170-250 g) were used. Each group was composed of 6 animals. The test compound was orally given by a gastric tube for 5 days. Cholesterol and triglyceride in the serum were determined by the standard methods using antoanalyzer (Technicon Inc.). The levels in the control group were considered as 100% and the reduction rate (%) in the test group was calculated.

[2] = Liver weight / hepatomegaly; format: in vivo, male Wistar rats; conditions: for Increase (%) Liver Weight: Wistar rats, 100 mg/kg/day oral, 5 days, * p<0.05 (only clofibrate starred)
serum cholesterol = experiment: Hypolipidemic action: male mice with hyperlipidemia (high cholesterol diet); format: in vivo, male dd-strain mice; conditions: dd mice, 100 mg/kg/day oral, 5 days, * p<0.05 (A, B, C, D starred; clofibrate not)
Experimental: (2) Male mice with hyperlipidemia:
Male dd-strain mice (20-25 g) were used. Each group was composed of 10 animals. Mice were fed a high cholesterol diet (1% cholesterol, 0.2% sodium cholate, 5% olive oil and 93.8% commercial diet) for 5 days. The test compound was orally administered to the animals once a day throughout the experimental period. The serum cholesterol was determined by the procedure described in Experiment (1).

Acute Toxicity (oral) = conditions: mouse, in vivo, mice, p.o., mortality within 7 days
Experimental: Male dd-strain mice (20-25 g) were used. Each group was composed of 10 animals. The test compound was orally administered to the animals. The LD50 (mg/kg) was calculated from the mortality within 7 days after administration of the test compound.

[3] = Serum Levels in Rhesus Monkey; format: in vivo, rhesus monkeys; conditions: 10 mg/kg oral; for Cmax: read-out: Peak level (serum)
Experimental: Serum Levels in Rhesus Monkey
The test compound was orally administered to rhesus monkeys at the dose of 10 mg/kg. Blood was collected at 0, 2, 4, 6, 8, 24, 30 and 48 hours after the administration of the test compound. After centrifugation, serum was stored at -20° C. until taken for analysis. Serum drug was extracted with ethyl acetate and fluorometrically determined.
(Wavelengths for fluorometric determination:
excitation: 294 nm, emission: 365 nm with compound A;
excitation: 305 nm, emission: 370 nm with compound D)

| SMILES | Decrease (%) Cholesterol [1] [%] | Decrease (%) Triglyceride [1] [%] | Increase (%) Liver Weight [2] [%] | Decrease (%) of Serum Cholesterol (serum cholesterol) [%] | LD50 at 168 h (Acute Toxicity (oral)) [mg/kg] | liver enlargement ([2]; 100 mg/kg) | half-life [3] [h] | Cmax [3] [ng/mL] | hepatomegaly ([2]; 500 mg/kg) |
| --- | --- | --- | --- | --- | --- | --- | --- | --- | --- |
| O.O=C(O)Cc1nc(-c2ccc(Cl)cc2)oc1Oc1ccccc1 [B, 2-p-Chlorophenyl-5-phenoxy-4-oxazoleacetic acid monohydrate] | 37 | 33 | -6 | 38 | – | – | – | – | – |
| CCOC(=O)Cc1nc(-c2ccc(Cl)cc2)sc1Sc1ccccc1 [C, Ethyl 2-p-chlorophenyl-5-phenylthio-4-thiazoleacetate] | 40 | 29 | 15 | 34 | – | – | – | – | – |
| CCOC(=O)C(C)(C)Oc1ccc(Cl)cc1 [Clofibrate, reference compound] | 32 | 34 | 17 | 16 | 1500 | significant liver enlargement | – | – | – |
| CCOC(=O)Cc1nc(-c2ccc(Cl)cc2)oc1Oc1ccc(Cl)cc1 [Compound A, Ethyl 2-p-chlorophenyl-5-p-chlorophenoxy-4-oxazoleacetate] | 40 | 33 | 5 | 37 | > 6000 | – | 30 | 30000 | no hepatomegaly |
| CCOC(=O)Cc1nc(-c2ccc(Cl)cc2)oc1OCC [D, Ethyl 2-p-chlorophenyl-5-ethoxy-4-oxazoleacetate, reference compound] | 32 | 33 | 5 | 37 | 3700 | – | 3 | 15000 | – |
